# Data from patent US20130029998A1, “Method of Detecting and Profiling Progression of the Risk of Neurodegenerative Diseases” (priority 2010, published 2013).
# Tests used:
# [1] = test system: Splotch homozygous (Sp−/−) embryos; experiment: H3K27me2, H3K27me3 and KDM6B staining of neural tube explants from folate-rescued Splotch homozygous embryos; type: in vivo, mouse; settings: folate-rescued Sp−/− embryos E10.0 (30 somite), neural crest cells of neural tube explants, compared with wild-type
# Method: After 140 hours neural crest cells were allowed to differentiate in the absence of growth factor for 2 days. After differentiation, neural crest cells from wild-type and Sp−/− embryo explant cultures were stained with DAPI, H3K27me2, H3K27me3 and KDM6B antibodies (Abeam, Inc Cambridge, Mass. 02139-1517). DAPI, H3K27me2, H3K27me3 and KDM6B positive cells from five different explant cultures were counted and expressed as a percentage of DAPI positive cells. […] The protein loading control was ascertained with Ponseau S staining.
# [2] = test system: Splotch homozygous (Sp−/−) embryos; experiment: Rescue of neural tube defect in Pax3 mutant Splotch mouse model of spina bifida; type: in vivo
smiles,measurement,setting,value
"Nc1nc2ncc(CNc3ccc(C(=O)N[C@@H](CCC(=O)O)C(=O)O)cc3)nc2c(=O)[nH]1 [Folic acid, folic acid]",H3K27me2 expression (positive cells as a percentage of DAPI positive cells),[1],reversal to near wild-type expression
same,H3K27me3 expression (positive cells as a percentage of DAPI positive cells),[1],reversal to near wild-type expression
same,KDM6B expression (positive cells as a percentage of DAPI positive cells),[1],reversal to near wild-type expression
same,H3K27me2 expression (positive cells as a percentage of DAPI positive cells),[1]; listed as folic acid,reversal
same,neural tube defect,[2],rescue of neural tube defect
